Reference: ChEMBL document CHEMBL1201862, “PubChem BioAssay data set” (2004)
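96-well plates; 48 h exposure; 5 concentrations. Endpoints by linear interpolation between flanking doses. Not reached: highest tested concentration assigned. GI50 is the concentration that inhibits growth by half.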 Activity calls are given as the source filed them. Cut-off read from the data, not from the text of the source: active = GI50 up to about 1.1 µM and inactive = higher.

Experiments:
Test in all cases: DTP human tumour cell line panel, 48 h
[1] = tested on: SF-268
[2] = tested on: M19-MEL
[3] = tested on: DLD-1
[4] = tested on: HT-29
[5] = tested on: MCF7
[6] = tested on: CCRF-CEM
[7] = tested on: DMS-114
[8] = tested on: UACC-257
[9] = tested on: DMS-273
[10] = tested on: SN12C
[11] = tested on: XF498
[12] = tested on: SK-MEL-2
[13] = tested on: SF-539
[14] = tested on: KM12
[15] = tested on: SK-MEL-5
[16] = tested on: OVCAR-4
[17] = tested on: HL-60
[18] = tested on: HCC 2998
[19] = tested on: HOP-18
[20] = tested on: U-251

Measured: GI50

N#C[C@H](OC1OC(COC2OC(CO)C(O)C(O)C2O)C(O)C(O)C1O)c1ccccc1 (stereo not given in full)
inactive: [1] > 250 µM | [2] > 250 µM | [3] > 250 µM | [4] > 250 µM | [5] > 250 µM | [6] > 250 µM | [7] > 250 µM | [8] 234 µM | [9] > 250 µM | [10] > 250 µM | [11] 23.4 µM | [12] > 250 µM | [13] > 214 µM | [14] > 250 µM | [15] > 250 µM | [16] > 250 µM | [17] 158 µM | [18] > 250 µM | [19] > 250 µM | [20] > 250 µM
